According to patent publication US10111921B2, “Regulation of brain biogenic amines associated with depression by a formulation from botanical source” (GoVind Prasad Dubey, priority 2014, dated 2018):
Marks after values point to notes of the source that are not given here.

Legend:
Melatonin = Melatonin level in brain, experimental sleep deprivation stress model; format: in vivo, rats of Charles foster strain; settings: 7 days sleep deprivation stress + drug, 10 rats
Description: In this group the sleep deprivation stress was introduced along with the hydro-alcoholic extract of three plants Nyctanthes arbor-tristis, Ocimum tenuiflorum and Hippophae salicifolia. […] On 7th day (after two hours of administration of test drug) different parts of the rat's brain were dissected and 5-HT, melatonin GABA. glutamate and histamine were measured. […]

GABA [1] = assay: GABA content in the brain following experimental sleep deprivation stress; format: in vivo, rats of Charles foster strain; settings: 7 days sleep deprivation stress + drug, 10 rats
Text: (§1) The study is divided into four groups, 10 rats of Charles foster strain were kept in each study group.
(§2) In control group 10 rats were selected and kept on normal saline for 7 days. On 7th days the animals were sacrificed and various biogenic amines like 5-HT GABA & glutamate, melatonin and MAO were estimated. After dissection of rat's brain the biogenic amines were estimated in thalamus, hypothalamus and cortex.
(§3) In this group sleep deprivation stress for 7 days was given to all the 10 rats. After 7 days the rat's brain were dissected and thalamus, hypo-thalamus and cortex were separated for the measurement of brain biogenic amines.
(§4) In this group the sleep deprivation stress was introduced along with the hydro-alcoholic extract of three plants Nyctanthes arbor-tristis, Ocimum tenuiflorum and Hippophae salicifolia. The drug Nyctanthes arbor-tristis (100 mg/kg bw./day), Ocimum tenuiflorum (50 mg/kg bw./day), Hippophae salicifolia (50 mg/kg bw./day) was given in combined form to all the 10 rats along with sleep deprivation stress. On 7th day (after two hours of administration of test drug) different parts of the rat's brain were dissected and 5-HT, melatonin GABA. glutamate and histamine were measured.
(§5) On 7th days the animals were sacrifice and brain biogenic amines were estimated in different parts of rat's brain.
(§6) The value obtained were compared with each other group (Normal vs sleep deprivation stress and sleep deprivation stress vs sleep deprivation stress+test formulation and sleep deprivation stress vs modern drug treatment group. Apart from initial at 7 day before sacrificing the animals circulating biogenic amines were also measured in all the three groups.

Glutamate [2] = assay: Glutamate level in brain following experimental sleep deprivation stress; format: in vivo, rats of Charles foster strain; settings: 7 days sleep deprivation stress + drug, 10 rats
Text: as §1, §2, §3, §4, §5, §6

GABA [3] = assay: Circulating GABA following experimental sleep deprivation stress; format: in vivo, rats of Charles foster strain; settings: 7 days sleep deprivation stress + drug, 10 rats
Description: as §1, §4, §5, §6

Glutamate [4] = assay: Circulating glutamate following experimental sleep deprivation stress; format: in vivo, rats of Charles foster strain; settings: 7 days sleep deprivation stress + drug, 10 rats
Description: as §1, §4, §5, §6

MAO = assay: Circulating MAO following experimental sleep deprivation stress; format: in vivo, rats of Charles foster strain; settings: 7 days sleep deprivation stress + drug, 10 rats
Description: as §1, §4, §5, §6

Histaminase = assay: Circulating histaminase following experimental sleep deprivation stress; format: in vivo, rats of Charles foster strain; settings: 7 days sleep deprivation stress + drug, 10 rats
Description: as §1, §4, §5, §6

[5] = system: mild to moderate depression; assay: Clinical symptomatology (in percent), clinical trial; format: in vivo, human
Description: (§7) In the present study 99 cases between the age group of 20 to 60 years presenting the symptoms of mild to moderate depression were selected for clinical trial of test formulation containing extract of Nyctanthes arbor-tristis, Ocimum tenuiflorum and Hippophae salicifolia. The subjects were advised to take test formulation twice in a day in two divided doses (475 mg morning and 475 mg in the evening). The level of mood was measured by Major Depression Inventory (MDI) developed by Olsen L R et al (2003), the fatigue and psychomotor performance was measured by Mental Fatigue Apparatus and Rotary Pursuit Task. These tests and test battery are recommended by Gupta and Dubey (1994) for the scientific and objective assessment in the area of drug development. The behavioral pattern was repeatedly assessed at the continuous interval of one month for six months.

minor depressive cases [6] = assay: Mental fatigue level (Mental Fatigue Apparatus), clinical trial; format: in vivo, human
Description: as §7

minor depressive cases [7] = assay: Rotatory pursuit task (psychomotor coordination), clinical trial; format: in vivo, human
Description: as §7

[8] = system: depressive disorder cases; assay: Anxiety level (score), clinical trial; format: in vivo, human
Description: as §7

[9] = system: depressive disorder cases; assay: Mental fatigue (Time), clinical trial; format: in vivo, human
Description: as §7

depression patients = assay: Attention span (score), clinical trial; format: in vivo, human
Description: as §7

GABA [10] = assay: GABA level in depression cases; format: in vivo, human
Description: as §7

Glutamate [11] = assay: Glutamate level in depression cases; format: in vivo, human
Description: as §7

Platelet MAO = Platelet MAO activity in depressive disorder cases; format: in vivo, human
Description: as §7

Glutamate [12] = assay: Column headed Glutamate (nmol/mg/hr) in platelet MAO table, depressive disorder cases; format: in vivo, human; settings: After 6 months; clinical Table 8
Text: (§8) In the present study 99 cases between the age group of 20 to 60 years presenting the symptoms of mild to moderate depression were selected for clinical trial of test formulation containing extract of Nyctanthes arbor-tristis, Ocimum tenuiflorum and Hippophae salicifolia. […] The behavioral pattern was repeatedly assessed at the continuous interval of one month for six months.

Epinephrine = Epinephrine level in depressive cases; format: in vivo, human; settings: Initial
Text: as §8

IL-1 β = assay: Interleukin-1 β concentration in mild to moderate depressive patients; format: in vivo, human
Description: as §7

TNF-α = TNF-α in mild to moderate depressive patients; format: in vivo, human
Description: as §7

DHA = DHA content in mild to moderate depressive patients; format: in vivo, human
Description: as §7

depression cases [13] = assay: Occipito frontalis muscle action potential in depression cases; format: in vivo, human
Description: as §7

depression cases [14] = assay: Delta wave in depression cases; format: in vivo, human
Description: as §7

Neuro-peptide-γ = Neuro-peptide-γ content in depressed patients; format: in vivo, human
depressive patients = assay: Sleep pattern by polysomnographic studies in depressive patients; format: in vivo, human
Description: as §7
In control series (Sertraline treated) all the investigations were repeated and compared with the treated group.
There is an increase in DHA content after oral administration of test formulation for 6 months (Table-12). […] Neuro-peptide-γ is the 36-amino acid which affects anxiety, stress, pain, circadian rhythm and also associated various psychiatric disorders particularly depression of varying degree. […] The effect of test formulation on sleep pattern measured by recording on polysomnographic studies indicated improvement in sleep period, total sleep, sleep latency and various stages of sleep. Though none of the cases could achieve the stage four. The results obtained in the test formulation treatment group were compared with the conventional drug treated group and exerted significant difference when the conventional treated group was compared with the test formulation treated group (Table-16-17). The drug was found safe and effective after 6 months of continuous oral administration to depressed patients.

## CNC1=Nc2ccc(Cl)cc2C(c2ccccc2)=[N+]([O-])C1 [Librium]
Melatonin; hypothalamus
  Melatonin, Hypothalamus: 7.80 ± 1.02 μg/gm in wet tissue
Melatonin; thalamus
  Melatonin, Thalamus: 5.95 ± 1.85 μg/gm in wet tissue
GABA [1]; cortex
  GABA, Cortex: 2.62 ± 0.59 μmol/gm in wet tissue
GABA [1]; hypothalamus
  GABA, Hypothalamus: 4.68 ± 1.02 μmol/gm in wet tissue
GABA [1]; thalamus
  GABA, Thalamus: 3.91 ± 0.58 μmol/gm in wet tissue
Glutamate [2]; cortex
  Glutamate, Cortex: 13.97 ± 2.11 μmol/gm in wet tissue
Glutamate [2]; hypothalamus
  Glutamate, Hypothalamus: 12.66 ± 3.06 μmol/gm in wet tissue
Glutamate [2]; thalamus
  Glutamate, Thalamus: 11.64 ± 3.01 μmol/gm in wet tissue
GABA [3]
  GABA (circulating): 1.02 ± 0.18 µmol/mL
Glutamate [4]
  Glutamate (circulating): 1.11 ± 0.10 µmol/mL
MAO
  MAO (circulating): 4.72 ± 0.89 nmol/m//hrs.
Histaminase
  Histaminase (circulating): 35.46 ± 4.95 µg/mL

## CN[C@H]1CC[C@@H](c2ccc(Cl)c(Cl)c2)c2ccccc21 [Sertraline]
[5]; After 6 months
  Early fatiguability: 91.12* percent
  Lack of interest: 92.20* percent
  Pessimistic thinking: 95.86* percent
  Poor appetite: 50.03* percent
  Poor concentration: 86.02* percent
  Poor sleep: 79.41* percent
  Psychomotor retardation: 78.09* percent
  Weight loss: 40.32* percent
[5]; Initial
  Early fatiguability: 98.01%
  Lack of interest: 97.82%
  Pessimistic thinking: 96.27%
  Poor appetite: 58.89%
  Poor concentration: 88.41%
  Poor sleep: 98.04%
  Psychomotor retardation: 74.66%
  Weight loss: 42.01%
Minor depressive cases [6]; After 2 months
  Mental fatigue level: 19.68 Hz
Minor depressive cases [6]; After 4 months
  Mental fatigue level: 19.02 Hz
Minor depressive cases [6]; After 6 months
  Mental fatigue level: 18.45 Hz
Minor depressive cases [6]; Initial
  Mental fatigue level: 18.22 Hz
Minor depressive cases [7]; After 2 months
  Rotatory pursuit task: 28.03 Hz
Minor depressive cases [7]; After 4 months
  Rotatory pursuit task: 27.47 Hz
Minor depressive cases [7]; After 6 months
  Rotatory pursuit task: 26.52 Hz
Minor depressive cases [7]; Initial
  Rotatory pursuit task: 28.39 Hz
[8]; After 6 months
  Anxiety level: 58.5 score
[8]; Initial
  Anxiety level: 56.5 score
[9]; After 6 month
  Mental fatigue (Time): 90.3
[9]; Initial
  Mental fatigue (Time): 94.5
Depression patients; After 6 months
  Attention span: 9.32 Score
Depression patients; Initial
  Attention span: 10.49 Score
GABA [10]; After 6 months
  GABA: 1.410 µmol/mL
GABA [10]; Initial
  GABA: 1.070 µmol/mL
Glutamate [11]; After 6 months
  Glutamate: 0.385 µmol/mL
Glutamate [11]; Initial
  Glutamate: 0.419 µmol/mL
Platelet MAO; After 6 months
  Platelet MAO: 5.98 nmol/mL/h
Platelet MAO; Initial
  Platelet MAO: 5.04 nmol/mL/h
Glutamate [12]
  Glutamate: 4.23 nmol/mg/h
Epinephrine
  Epinephrine: 5.32 ng/mL
IL-1 β; After 2 months
  IL-1 β: 1.886 µg/mL
IL-1 β; After 4 months
  IL-1 β: 1.923 µg/mL
IL-1 β; After 6 months
  IL-1 β: 1.790 µg/mL
IL-1 β; Initial
  IL-1 β: 2.098 µg/mL
TNF-α; After 2 months
  TNF-1 α: 3.71 ng/mL
TNF-α; After 4 months
  TNF-1 α: 3.85 ng/mL
TNF-α; After 6 months
  TNF-1 α: 4.14 ng/mL
TNF-α; Initial
  TNF-1 α: 4.82 ng/mL
DHA; After 2 months
  DHA: 1.082 g/100 g of total fatty acid
DHA; After 4 months
  DHA: 1.920 g/100 g of total fatty acid
DHA; After 6 months
  DHA: 1.980 g/100 g of total fatty acid
DHA; Initial
  DHA: 1.096 g/100 g of total fatty acid
Depression cases [13]; After 2 months
  Occipito frontalis muscle action potential: 41.75
Depression cases [13]; After 4 months
  Occipito frontalis muscle action potential: 42.82
Depression cases [13]; After 6 months
  Occipito frontalis muscle action potential: 40.86
Depression cases [13]; Initial
  Occipito frontalis muscle action potential: 4.378
Depression cases [14]; After 2 months
  Delta Wave: 0.94 Hz
Depression cases [14]; After 4 months
  Delta Wave: 1.06 Hz
Depression cases [14]; After 6 months
  Delta Wave: 1.02 Hz
Depression cases [14]; Initial
  Delta Wave: 0.68 Hz
Neuro-peptide-γ; After 2 months
  Neuro-peptide-γ: 148.90 pg/mL
Neuro-peptide-γ; After 4 months
  Neuro-peptide-γ: 151.89 pg/mL
Neuro-peptide-γ; After 6 months
  Neuro-peptide-γ: 156.04 pg/mL
Neuro-peptide-γ; Initial
  Neuro-peptide-γ: 129.68 pg/mL
Depressive patients; After 6 months treatment
  Sleep Latency: 14.98 min
  Sleep period: 438.35 min
  Stage-I (Time in min): 162.98 min
  Stage-II (Time in min): 46.22 min
  Stage-III (Time in min): 15.82 min
  Total Sleep: 201.94 min
Depressive patients; Before treatment
  Sleep Latency: 13.62 min
  Sleep period: 445.90 min
  Stage-I (Time in min): 179.32 min
  Stage-II (Time in min): 45.82 min
  Stage-III (Time in min): 18.22 min
  Total Sleep: 234.98 min
